Counter-ions that a name gives are not always drawn.
Key:
PTH1R [1] = experiment: cAMP accumulation, PTH1R; assay type: cell-based, human; conditions: PTH1R B2AR ICL3
Experimental: (§1) One millilitre of medium was removed from each well containing transfected cells. The remaining volume was used to gently shear and resuspend the cells by pipetting. The cell mixture was centrifuged (3 min, 300g) and media was removed using a vacuum manifold. […] The cells were washed once by repeating this procedure.
(§2) For all other second messenger assays, expression level and cell density of each condition was estimated through fluorescence. Fluorescence spectra for mCerulean (Horiba Fluoromax 4, excitation 430 nm, emission scan 450–600 nm, bandpass 4 nm) and mCitrine (Horiba Fluoromax 4, excitation 490 nm, emission scan 500–600 nm, bandpass 4 nm) were acquired for each condition. Cells were resuspended at 350,000 ± 30,000 fluorescence counts at a wavelength representing optical density of the sample (excitation 430 nm/emission 450 nm), corresponding with 2 × 10^6 ± 5 × 10^5 cells per m^l. This was confirmed by counting the cells on a haemocytometer (Countess II).
(§3) Resuspended cells were added 1:1 with a 2× concentration of ligand (10 µl final) into an opaque 384-well flat bottom plate (Greiner Bio-One). […] For dose–response curves, a saturating concentration of forskolin (10 µM) was included as a control to measure cAMP stimulation independent of the transfected receptor. […] For all other experiments, plates were incubated at room temperature for 10 min. […] Reactions were quenched and processed for the cAMP-Glo Assay (Promega) following the manufacturer’s instructions. Luminescence was measured on a Tecan Spark plate reader (500 ms integration, one measurement per well).

PTH1R [2] = target: T1, PTH1R (Homo sapiens, UniProt Q03431); experiment: cAMP accumulation, PTH1R; assay type: cell-based; conditions: PTH1R Wild-Type
T1 construct: expressed in transfected cells; host or cells: HEK 293T
T1 sequence (Q03431 27-593): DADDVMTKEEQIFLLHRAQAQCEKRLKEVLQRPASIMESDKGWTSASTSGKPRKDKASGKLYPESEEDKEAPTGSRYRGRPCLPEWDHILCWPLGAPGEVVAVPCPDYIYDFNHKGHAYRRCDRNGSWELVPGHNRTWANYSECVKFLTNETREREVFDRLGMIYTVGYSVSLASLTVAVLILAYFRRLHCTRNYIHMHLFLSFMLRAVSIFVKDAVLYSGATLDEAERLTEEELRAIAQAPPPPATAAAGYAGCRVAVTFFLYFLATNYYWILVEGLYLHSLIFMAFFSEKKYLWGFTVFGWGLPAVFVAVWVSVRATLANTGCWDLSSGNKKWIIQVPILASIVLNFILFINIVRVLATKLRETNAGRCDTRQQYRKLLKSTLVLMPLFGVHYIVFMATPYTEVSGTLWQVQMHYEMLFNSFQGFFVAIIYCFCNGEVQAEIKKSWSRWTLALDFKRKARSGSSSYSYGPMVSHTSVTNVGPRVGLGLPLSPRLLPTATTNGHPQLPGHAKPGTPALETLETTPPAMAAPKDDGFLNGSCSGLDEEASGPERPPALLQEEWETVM
Experimental: as §1, §2, §3

PTH1R [3] = experiment: InsP1 accumulation, PTH1R; assay type: cell-based, human; conditions: PTH1R B2AR ICL3
Experimental: as §1, §2
(§4) Resuspended cells were added 1:1 with a 2× concentration of ligand (70 µl final) into an opaque 96-well U-bottom plate (Greiner Bio-One). […] Plates were incubated at 37 °C for 2 h to stimulate InsP1 production. Reactions were quenched and processed for the InsP1 HTRF Assay (CisBio), following a protocol modified to achieve a higher signal to noise ratio. Fifteen microlitres of D2-conjugated InsP1 resuspended in lysis buffer (Cisbio) and 15 µl of terbium cryptate conjugated anti-InsP1 antibody resuspended in lysis buffer (Cisbio) were added to the stimulated cell mixture. Cell lysate was equilibrated for 1 h at ambient temperature with shaking (500 rpm). Reactions were transferred (4 × 20 µl) to a 384-well plate for technical replicates. […] FRET ratio for each reading was calculated as the ratio of acceptor emission to donor emission. InsP1 signal for a drug and transfection combination was calculated as the average FRET ratio of a given transfection condition without drug treatment subtracted from the average FRET ratio of a of a given transfection condition with drug treatment.

PTH1R [4] = target: T1, PTH1R; experiment: InsP1 accumulation, PTH1R; assay type: cell-based; conditions: PTH1R Wild-Type
Experimental: as §1, §2, §4

[5] = tested on: endogenous adrenergic receptors in HEK 293T cells; experiment: cAMP accumulation, untransfected cells; assay type: cell-based, human; conditions: untransfected HEK 293T cells; Isoproterenol 10 µM
Experimental: Resuspended cells were added 1:1 with a 2× concentration of ligand (10 µl final) into an opaque 384-well flat bottom plate (Greiner Bio-One). […]. for FSK inhibition assays with β-ARs, 100 µM metoprolol was used. For dose–response curves, a saturating concentration of forskolin (10 µM) was included as a control to measure cAMP stimulation independent of the transfected receptor. For experiments comparing multiple receptors measuring non-cognate or secondary Gs signalling (Fig. 4e, Extended Data Fig. 8i–k), 500 µM 3-isobutyl-1-methylxanthine (IBMX) was used to inhibit phosphodiesterase activity. For all other experiments, no IBMX was used to minimize cAMP accumulation from endogenous receptors (Extended Data Fig. 6a). For experiments in Fig. 2g and Extended Data Fig. 6b,e, plates were incubated at 37 °C for 10 min to stimulate cAMP production. For all other experiments, plates were incubated at room temperature for 10 min. […] Reactions were quenched and processed for the cAMP-Glo Assay (Promega) following the manufacturer’s instructions. Luminescence was measured on a Tecan Spark plate reader (500 ms integration, one measurement per well). […]

[6] = [Isoproterenol] log(M) -8.30103
[7] = [Isoproterenol] log(M) -9.30103
[8] = [Isoproterenol] log(M) -6.30103
[9] = [Isoproterenol] log(M) -7.30103

CC(C)NCC(O)c1ccc(O)c(O)c1 (stereo not drawn) [Isoproterenol, isoproterenol (+)-bitartrate salt]
cAMP (Isoproterenol/Forskolin Maximum), Average (PTH1R [1]; [Isoproterenol] log(M) -5): 0.73
cAMP (Isoproterenol/Forskolin Maximum), Average (PTH1R [1]; [Isoproterenol] log(M) -6): 0.71
cAMP (Isoproterenol/Forskolin Maximum), Average (PTH1R [1]; [Isoproterenol] log(M) -7): 0.69
cAMP (Isoproterenol/Forskolin Maximum), Average (PTH1R [1]; [Isoproterenol] log(M) -8): 0.49
cAMP (Isoproterenol/Forskolin Maximum), Average (PTH1R [1]; [6]): 0.39
cAMP (Isoproterenol/Forskolin Maximum), Average (PTH1R [1]; [Isoproterenol] log(M) -9): 0.0653
cAMP (Isoproterenol/Forskolin Maximum), Average (PTH1R [1]; [7]): 0.0238
cAMP (Isoproterenol/Forskolin Maximum), Average (PTH1R [1]; [Isoproterenol] log(M) -10): -0.0474
cAMP (Isoproterenol/Forskolin Maximum), Average (PTH1R [1]; [Isoproterenol] log(M) -11): 0.02
cAMP (Isoproterenol/Forskolin Maximum), Average (PTH1R [1]; [Isoproterenol] log(M) -12): -0.0165
cAMP (Isoproterenol/Forskolin Maximum), Average (PTH1R [2]; [Isoproterenol] log(M) -5): 0.55
cAMP (Isoproterenol/Forskolin Maximum), Average (PTH1R [2]; [Isoproterenol] log(M) -6): 0.57
cAMP (Isoproterenol/Forskolin Maximum), Average (PTH1R [2]; [Isoproterenol] log(M) -7): 0.59
cAMP (Isoproterenol/Forskolin Maximum), Average (PTH1R [2]; [Isoproterenol] log(M) -8): 0.43
cAMP (Isoproterenol/Forskolin Maximum), Average (PTH1R [2]; [6]): 0.44
cAMP (Isoproterenol/Forskolin Maximum), Average (PTH1R [2]; [Isoproterenol] log(M) -9): 0.10
cAMP (Isoproterenol/Forskolin Maximum), Average (PTH1R [2]; [7]): 0.00476
cAMP (Isoproterenol/Forskolin Maximum), Average (PTH1R [2]; [Isoproterenol] log(M) -10): -0.0216
cAMP (Isoproterenol/Forskolin Maximum), Average (PTH1R [2]; [Isoproterenol] log(M) -11): -0.00704
cAMP (Isoproterenol/Forskolin Maximum), Average (PTH1R [2]; [Isoproterenol] log(M) -12): -0.08
IP1 (AU), Average (PTH1R [3]; [Isoproterenol] log(M) -5): 0.32 AU
IP1 (AU), Average (PTH1R [3]; [Isoproterenol] log(M) -6): 0.35 AU
IP1 (AU), Average (PTH1R [3]; [8]): 0.29 AU
IP1 (AU), Average (PTH1R [3]; [Isoproterenol] log(M) -7): 0.28 AU
IP1 (AU), Average (PTH1R [3]; [9]): 0.15 AU
IP1 (AU), Average (PTH1R [3]; [Isoproterenol] log(M) -8): -0.00248 AU
IP1 (AU), Average (PTH1R [3]; [6]): -0.00156 AU
IP1 (AU), Average (PTH1R [3]; [7]): 0.05 AU
IP1 (AU), Average (PTH1R [3]; [Isoproterenol] log(M) -10): -0.0155 AU
IP1 (AU), Average (PTH1R [3]; [Isoproterenol] log(M) -11): 0.00619 AU
IP1 (AU), Average (PTH1R [4]; [Isoproterenol] log(M) -5): 0.44 AU
IP1 (AU), Average (PTH1R [4]; [Isoproterenol] log(M) -6): 0.45 AU
IP1 (AU), Average (PTH1R [4]; [8]): 0.41 AU
IP1 (AU), Average (PTH1R [4]; [Isoproterenol] log(M) -7): 0.38 AU
IP1 (AU), Average (PTH1R [4]; [9]): 0.22 AU
IP1 (AU), Average (PTH1R [4]; [Isoproterenol] log(M) -8): 0.0235 AU
IP1 (AU), Average (PTH1R [4]; [6]): 0.04 AU
IP1 (AU), Average (PTH1R [4]; [Isoproterenol] log(M) -9): -0.0234 AU
IP1 (AU), Average (PTH1R [4]; [Isoproterenol] log(M) -10): -0.0216 AU
IP1 (AU), Average (PTH1R [4]; [Isoproterenol] log(M) -11): -0.00815 AU
cAMP generated from endogenous receptors [5]: only detected in the presence of 500 µM IBMX
